Measured values taken from patent US20100267561A1, “HERBICIDAL PYRIDAZINONE DERIVATIVES” (priority 2007, published 2010).

Assays:
Format in all cases: in vivo
[1] = system: common (oilseed) sunflower (Helianthus annuus); assay: Test B pre-/postemergence plant response; conditions: Preemergence
Description: (§1) Seeds of plant species selected from blackgrass (Alopecurus myosuroides), downy bromegrass (Bromus tectorum), green foxtail (Setaria viridis), Italian ryegrass (Lolium multiflorum), wheat (Triticum aestivum), wild oat (Avena fatua), catchweed bedstraw (Galium aparine), bermudagrass (Cynodon dactylon), surinam grass (Brachiaria decumbens), cocklebur (Xanthium strumarium), corn (Zea mays), large crabgrass (Digitaria sanguinalis), woolly cupgrass (Eriochloa villosa), giant foxtail (Setaria faberii), goosegrass (Eleusine indica), johnsongrass (Sorghum halepense), kochia (Kochia scoparia), lambsquarters (Chenopodium album), morningglory (Ipomoea coccinea), eastern black (E.B.) nightshade (Solanum ptycanthum), yellow nutsedge (Cyperus esculentus), pigweed (Amaranthus retroflexus), common ragweed (Ambrosia elation), Russian thistle (Salsola iberica), soybean (Glycine max), common (oilseed) sunflower (Helianthus annuus), and velvetleaf (Abutilon theophrasti) were planted and treated preemergence with test chemicals formulated in a non-phytotoxic solvent mixture which included a surfactant.
(§2) At the same time, plants selected from these crop and weed species and also winter barley (Hordeum vulgare), canarygrass (Phalaris minor), chickweed (Stellaria media) and windgrass (Apera spica-venti) were treated with postemergence applications of some of the test chemicals formulated in the same manner. Plants ranged in height from 2 to 18 cm (1- to 4-leaf stage) for postemergence treatments.
(§3) Plant species in the flooded paddy test consisted of rice (Oryza sativa), umbrella sedge (Cyperus difformis), ducksalad (Heteranthera limosa) and barnyardgrass (Echinochloa crus-galli) grown to the 2-leaf stage for testing. At time of treatment, test pots were flooded to 3 cm above the soil surface, treated by application of test compounds directly to the paddy water, and then maintained at that water depth for the duration of the test. Treated plants and controls were maintained in a greenhouse for 13 to 15 days, after which time all species were compared to controls and visually evaluated. Plant response ratings, summarized in Table B, are based on a scale of 0 to 100 where 0 is no effect and 100 is complete control. A dash (-) response means no test result.

wild oat (Avena fatua) = assay: Test B pre-/postemergence plant response; conditions: for Oat, Wild plant response rating: 8 g ai/ha
Description: as §1, §2, §3

[2] = system: large crabgrass (Digitaria sanguinalis); assay: Test B pre-/postemergence plant response; conditions: for Crabgrass, Large plant response rating: 8 g ai/ha
Description: as §1, §2, §3

[3] = system: woolly cupgrass (Eriochloa villosa); assay: Test B pre-/postemergence plant response; conditions: for Cupgrass, Woolly plant response rating: 8 g ai/ha
Description: as §1, §2, §3

[4] = system: goosegrass (Eleusine indica); assay: Test B pre-/postemergence plant response; conditions: for Goosegrass plant response rating: 8 g ai/ha
Description: as §1, §2, §3

[5] = system: eastern black (E.B.) nightshade (Solanum ptycanthum); assay: Test B pre-/postemergence plant response; conditions: Preemergence
Description: as §1, §2, §3

[6] = system: pigweed (Amaranthus retroflexus); assay: Test B pre-/postemergence plant response; conditions: for Pigweed plant response rating: 8 g ai/ha
Description: as §1, §2, §3

[7] = system: common ragweed (Ambrosia elation); assay: Test B pre-/postemergence plant response; conditions: for Ragweed plant response rating: 8 g ai/ha
Description: as §1, §2, §3

[8] = system: johnsongrass (Sorghum halepense); assay: Test B pre-/postemergence plant response; conditions: for Johnsongrass plant response rating: 8 g ai/ha
Description: as §1, §2, §3

[9] = system: green foxtail (Setaria viridis); assay: Test B pre-/postemergence plant response; conditions: for Foxtail, Green plant response rating: 8 g ai/ha
Description: as §1, §2, §3

[10] = system: velvetleaf (Abutilon theophrasti); assay: Test B pre-/postemergence plant response; conditions: for Velvetleaf plant response rating: 8 g ai/ha
Description: as §1, §2, §3

[11] = system: giant foxtail (Setaria faberii); assay: Test B pre-/postemergence plant response; conditions: for Foxtail, Giant plant response rating: 8 g ai/ha
Description: as §1, §2, §3

[12] = system: ducksalad (Heteranthera limosa); assay: Test B flooded paddy test plant response
Outline: (§4)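 Paddy-water application to 2-leaf plants in pots held under 3 cm of flooding; response is a 0–100 visual control rating against controls after 13 to 15 days, and a dash marks a missing result.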

rice (Oryza sativa) = assay: Test B flooded paddy test plant response
Outline: as §4

[13] = 16 g ai/ha, scale 0 to 100 (0 no effect, 100 complete control)
[14] = Postemergence, 16 g ai/ha, scale 0 to 100
[15] = Postemergence, 31 g ai/ha, scale 0 to 100, 0 no effect, 100 complete control
[16] = Postemergence, 62 g ai/ha, scale 0 to 100
[17] = Preemergence, 16 g ai/ha, scale 0 to 100 (0 no effect, 100 complete control)
[18] = Preemergence, 31 g ai/ha, 0 to 100 scale, 0 no effect, 100 complete control
[19] = Preemergence, 62 g ai/ha, scale 0 to 100
[20] = Flood (flooded paddy test), 62 g ai/ha, scale 0 to 100, 0 no effect, 100 complete control
[21] = Flood (flooded paddy test), 125 g ai/ha, scale 0 to 100, 0 no effect, 100 complete control
[22] = Flood (flooded paddy test), 250 g ai/ha, scale 0 to 100, 0 no effect, 100 complete control
[23] = Flood, 31 g ai/ha, scale 0 to 100

CCc1cc(-c2ccc(C(F)(F)F)cc2)nn1-c1c(OS(C)(=O)=O)cnn(C)c1=O [Compound 19]
50: Crabgrass, Large plant response rating ([2]; Preemergence, scale 0 to 100) | Cupgrass, Woolly plant response rating ([3]; Preemergence, scale 0 to 100) | Goosegrass plant response rating ([4]; postemergence, 0-100 scale)
60: Oat, Wild plant response rating (wild oat (Avena fatua); Preemergence, scale 0 to 100) | Foxtail, Green plant response rating ([9]; postemergence, 0-100 scale) | Plant response rating, Rice (rice (Oryza sativa); [21])
85: Plant response rating, Crabgrass, Large [2, 14] | Plant response rating, Cupgrass, Woolly [3, 17] | Foxtail, Green plant response rating ([9]; Preemergence, scale 0 to 100)
70: Foxtail, Giant plant response rating ([11]; Preemergence, scale 0 to 100) | Plant response rating, Rice (rice (Oryza sativa); [22])
98: Plant response rating, Oat, Wild (wild oat (Avena fatua); [14]) | Plant response rating, Cupgrass, Woolly [3, 18]
0: Plant response rating, Sunflower [1, 13] | Plant response rating, Sunflower ([1]; 31 g ai/ha, 0 to 100 scale, 0 no effect, 100 complete control) | Plant response rating, Sunflower ([1]; 62 g ai/ha, scale 0 to 100) | Sunflower plant response rating ([1]; 8 g ai/ha, scale 0 to 100) | Goosegrass plant response rating ([4]; Preemergence, scale 0 to 100) | Plant response rating, Nightshade, E. B. [5, 13] | Plant response rating, Nightshade, E. B. ([5]; 62 g ai/ha, scale 0 to 100) | Nightshade, E. B. plant response rating ([5]; 8 g ai/ha, scale 0 to 100) | Pigweed plant response rating ([6]; postemergence, 0-100 scale) | Plant response rating, Pigweed [6, 14] | Plant response rating, Pigweed [6, 15] | Plant response rating, Pigweed [6, 16] | Plant response rating, Pigweed [6, 17] | Plant response rating, Pigweed [6, 18] | Plant response rating, Pigweed [6, 19] | Pigweed plant response rating ([6]; Preemergence, scale 0 to 100) | Ragweed plant response rating ([7]; postemergence, 0-100 scale) | Plant response rating, Ragweed [7, 14] | Plant response rating, Ragweed [7, 15] | Plant response rating, Ragweed [7, 16] | Plant response rating, Ragweed [7, 17] | Plant response rating, Ragweed [7, 18] | Plant response rating, Ragweed [7, 19] | Ragweed plant response rating ([7]; Preemergence, scale 0 to 100) | Velvetleaf plant response rating ([10]; postemergence, 0-100 scale) | Plant response rating, Velvetleaf [10, 14] | Plant response rating, Velvetleaf [10, 15] | Plant response rating, Velvetleaf [10, 16] | Plant response rating, Velvetleaf [10, 17] | Plant response rating, Velvetleaf [10, 18] | Plant response rating, Velvetleaf [10, 19] | Velvetleaf plant response rating ([10]; Preemergence, scale 0 to 100) | Plant response rating, Ducksalad [12, 20] | Plant response rating, Ducksalad [12, 21] | Plant response rating, Ducksalad [12, 23] | Plant response rating, Rice (rice (Oryza sativa); [23])
75: Plant response rating, Oat, Wild (wild oat (Avena fatua); [17]) | Plant response rating, Goosegrass [4, 17]
40: Johnsongrass plant response rating ([8]; postemergence, 0-100 scale)
100: Plant response rating, Oat, Wild (wild oat (Avena fatua); [15]) | Plant response rating, Oat, Wild (wild oat (Avena fatua); [16]) | Plant response rating, Crabgrass, Large [2, 16] | Plant response rating, Crabgrass, Large [2, 17] | Plant response rating, Crabgrass, Large [2, 18] | Plant response rating, Crabgrass, Large [2, 19] | Plant response rating, Cupgrass, Woolly [3, 15] | Plant response rating, Cupgrass, Woolly [3, 16] | Plant response rating, Cupgrass, Woolly [3, 19] | Plant response rating, Goosegrass [4, 18] | Plant response rating, Goosegrass [4, 19] | Plant response rating, Johnsongrass [8, 15] | Plant response rating, Johnsongrass [8, 16] | Plant response rating, Johnsongrass [8, 17] | Plant response rating, Johnsongrass [8, 18] | Plant response rating, Johnsongrass [8, 19] | Plant response rating, Foxtail, Green [9, 14] | Plant response rating, Foxtail, Green [9, 15] | Plant response rating, Foxtail, Green [9, 16] | Plant response rating, Foxtail, Green [9, 17] | Plant response rating, Foxtail, Green [9, 18] | Plant response rating, Foxtail, Green [9, 19] | Plant response rating, Foxtail, Giant [11, 14] | Plant response rating, Foxtail, Giant [11, 15] | Plant response rating, Foxtail, Giant [11, 16] | Plant response rating, Foxtail, Giant [11, 17] | Plant response rating, Foxtail, Giant [11, 18] | Plant response rating, Foxtail, Giant [11, 19]
25: Plant response rating, Ducksalad [12, 22]
20: Plant response rating, Rice (rice (Oryza sativa); [20])
90: Oat, Wild plant response rating (wild oat (Avena fatua); postemergence, 0-100 scale) | Cupgrass, Woolly plant response rating ([3]; postemergence, 0-100 scale) | Plant response rating, Cupgrass, Woolly [3, 14] | Plant response rating, Goosegrass [4, 16]
95: Plant response rating, Oat, Wild (wild oat (Avena fatua); [18]) | Plant response rating, Oat, Wild (wild oat (Avena fatua); [19]) | Plant response rating, Crabgrass, Large [2, 15] | Foxtail, Giant plant response rating ([11]; postemergence, 0-100 scale)
80: Crabgrass, Large plant response rating ([2]; postemergence, 0-100 scale) | Plant response rating, Goosegrass [4, 14] | Plant response rating, Goosegrass [4, 15] | Plant response rating, Johnsongrass [8, 14] | Johnsongrass plant response rating ([8]; Preemergence, scale 0 to 100)
